In the assay the target is T1, ABCG2 (Homo sapiens, UniProt Q9UNQ0).
T1 sequence (Q9UNQ0 1-655): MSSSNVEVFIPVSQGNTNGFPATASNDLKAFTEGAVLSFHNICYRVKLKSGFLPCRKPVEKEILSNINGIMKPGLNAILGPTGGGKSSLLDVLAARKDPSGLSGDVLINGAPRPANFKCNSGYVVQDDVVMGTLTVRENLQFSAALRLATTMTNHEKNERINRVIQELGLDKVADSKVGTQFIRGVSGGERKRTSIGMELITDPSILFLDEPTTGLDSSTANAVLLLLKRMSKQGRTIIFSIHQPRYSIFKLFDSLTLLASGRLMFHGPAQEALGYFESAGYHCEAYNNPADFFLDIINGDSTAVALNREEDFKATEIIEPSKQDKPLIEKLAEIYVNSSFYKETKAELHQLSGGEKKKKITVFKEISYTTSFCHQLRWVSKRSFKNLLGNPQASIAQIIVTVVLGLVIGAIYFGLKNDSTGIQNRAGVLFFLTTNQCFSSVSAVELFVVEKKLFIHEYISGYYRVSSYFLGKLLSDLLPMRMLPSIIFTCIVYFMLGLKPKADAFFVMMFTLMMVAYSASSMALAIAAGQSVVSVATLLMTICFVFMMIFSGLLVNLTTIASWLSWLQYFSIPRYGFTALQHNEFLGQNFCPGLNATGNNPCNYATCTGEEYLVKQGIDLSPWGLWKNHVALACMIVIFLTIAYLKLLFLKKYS
Kind of assay: inhibition of [3H]methotrexate transport in Sf9 membrane vesicles. It counts as biochemical.

Our source for the IC50 values is paper PMC3531552 (Cancer research, 2011).

On to `Nc1nc(Cl)nc2c1ncn2[C@@H]1O[C@H](CO)[C@@H](O)[C@@H]1F` [clofarabine], for which the half-maximal inhibitory concentration (IC50) was ~14 µM.
